Patent US20130143230A1, “MICROFLUIDIC-BASED CELL-CULTURING PLATFORM AND METHOD” (The Trustees of the Stevens Institute of Technology, priority 2011, published 2013)

Legend:
Assay type in all cases: cell-based, Human
MCF-7 [1] = assay: Photodynamic therapy in 3D cultured breast cancer tissue, live/dead staining; conditions: 3D tissue, perfusion 4 hours, broadband halogen light 1 minute, stained after overnight culture
Protocol: A photosensitizer precursor drug, aminolevulinic acid (5-ALA) was supplemented in the culture media delivered to a 3D cultured breast cancer tissue (MCF-7), and allowed to infiltrate the tissue via perfusion for 4 hours to emulate microinjection. After cellular uptake, 5-ALA was converted into photosensitive protoporphyrin (PpIX). […] High ROS concentrations led to cell destruction. To determine the extent of cell damage, the culture was stained with a live/dead staining kit (Sigma) after overnight culture and examined with a Leica confocal microscope.

MCF-7 [2] = assay: Photodynamic therapy in 2D culture, live/dead staining
Description: […] After cellular uptake, 5-ALA was converted into photosensitive protoporphyrin (PpIX). […] High ROS concentrations led to cell destruction. To determine the extent of cell damage, the culture was stained with a live/dead staining kit (Sigma) after overnight culture and examined with a Leica confocal microscope.

MCF-7 [3] = assay: Drug evaluation in microfluidic 3D breast cancer tissue culture (tissue nodules); conditions: flow 0.8 μL/min, one week, 3D microfluidic culture
Protocol: Human breast cancer cells (from immortalized cell line MCF-7) were incubated in a tissue culture chamber for 2 weeks with a continuous media flow at 0.8 μL/min. Initial cell attachment was seen across the entire chamber surface and continuously proliferated over time to form a 3D tissue layer having a depth of about 70-100 μm. […] These structures were similar to those observed in the earliest stages of tumor formation. A majority of the cells remained viable.
In contrast to pure cultures of breast cancer cells, co-cultures with stromal cells stimulate breast cancer cells. […] At three weeks of incubation, the nodule-like structures had become large enough to be recognized under a microscope, reaching 80-150 μm in diameter. Based on histological staining, the organization of these cells was consistent with their cancerous origin. The cells appeared to be transformed, having an increased nuclear/cytoplasmic ratio, and the cell mass was disorganized.
Doxorubicin (Dox), a known anticancer drug, was first tested using the microfluidic breast tissue culture described in the preceding examples. Dox was delivered to the tissue nodules at 10 nM and 1 μM, respectively, at a flow rate of 0.8 μL/min of medium via the inlet for one week.
A new lytic anticancer peptide (L5) was designed and synthesized to interact with cell membranes and therefore disrupt membrane integrity and destroy cells. The peptide drug was delivered to the tissue nodules at 30 μg/mL in the medium at a flow rate of 0.8 μL/min of medium via inlet for 2 days. […] Occasionally, some nuclei were still seen in the remaining tissue matrix. […] This may be due to a reduced rate of diffusion of the drug to the area of the surviving cells. This finding highlights the value of using the microfluidic culture model for drug assessment as it provides a more accurate representation of the 3D cellular organization encountered in vivo. It also hints at a plausible explanation to why some breast cancer therapies fail in vivo or why recurrence and multidrug resistance occurs after chemotherapy. […]

| Compound | cells killed after PDT treatment (MCF-7 [1]) | cells killed after PDT treatment (MCF-7 [2]) | progression of tumor nodules (real-time images) (MCF-7 [3]; 10 nM in medium) | formation of dark nodules (real-time images) (MCF-7 [3]; 1 μM in medium) | tissue growth (MCF-7 [3]; 1 μM in medium) |
| --- | --- | --- | --- | --- | --- |
| NCC(=O)CCC(=O)O [5-ALA, aminolevulinic acid] | about 50% | about 70% | – | – | – |
| COc1cccc2c1C(=O)c1c(O)c3c(c(O)c1C2=O)C[C@@](O)(C(=O)CO)C[C@@H]3O[C@H]1C[C@H](N)[C@H](O)[C@H](C)O1 [Dox, Doxorubicin] | – | – | continuous progression of tumor nodules was observed | No obvious formation of dark nodules was observed | continuous tissue growth was noticed |
